Experimental data: ChEMBL document CHEMBL1201862, “PubChem BioAssay data set” (2004)
Calls of active or inactive are those of the source.

What was measured:
[1] = biological target: 1-phosphatidylinositol 4,5-bisphosphate phosphodiesterase gamma-1 (Homo sapiens, UniProt P19174); test: Counterscreen for inhibitors of phospholipase C isozymes (PLC-B3): Fluorescence-based biochemical high throughput dose response assay to identify inhibitors of phospholipase C isozymes (PLC-gamma1).
[2] = biological target: 1-phosphatidylinositol 4,5-bisphosphate phosphodiesterase beta-3 (Homo sapiens, UniProt Q01970); test: Fluorescence-based biochemical high throughput dose response assay to identify inhibitors of phospholipase C isozymes (PLC-B3).
Kallikrein-7 = Kallikrein-7 (Homo sapiens, UniProt P49862); test: Fluorescence Intensity-based biochemical primary high throughput dose response assay to identify activators of kallikrein-7 (K7) zymogen.
[3] = biological target: T1, Corticotropin-releasing factor receptor 2/Corticotropin-releasing factor-binding protein (Homo sapiens, UniProt P24387+Q13324); test: activators of CRF receptor 2 with binding protein – uHTS hits, confirmation (AID 602473); assay type: functional; details: read-out: EC50_Mean
T1 sequence (Q13324 whole entry): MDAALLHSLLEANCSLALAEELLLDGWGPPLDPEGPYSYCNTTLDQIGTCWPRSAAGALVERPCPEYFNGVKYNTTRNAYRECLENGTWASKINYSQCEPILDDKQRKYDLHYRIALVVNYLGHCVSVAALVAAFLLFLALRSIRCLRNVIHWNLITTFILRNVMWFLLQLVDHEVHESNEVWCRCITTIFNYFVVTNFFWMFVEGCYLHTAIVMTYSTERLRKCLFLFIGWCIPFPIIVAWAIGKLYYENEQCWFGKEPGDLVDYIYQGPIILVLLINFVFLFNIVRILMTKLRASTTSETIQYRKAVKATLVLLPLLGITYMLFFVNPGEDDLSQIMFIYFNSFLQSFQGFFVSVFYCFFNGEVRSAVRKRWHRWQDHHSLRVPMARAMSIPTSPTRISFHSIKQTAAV
T1 sequence (P24387 whole entry): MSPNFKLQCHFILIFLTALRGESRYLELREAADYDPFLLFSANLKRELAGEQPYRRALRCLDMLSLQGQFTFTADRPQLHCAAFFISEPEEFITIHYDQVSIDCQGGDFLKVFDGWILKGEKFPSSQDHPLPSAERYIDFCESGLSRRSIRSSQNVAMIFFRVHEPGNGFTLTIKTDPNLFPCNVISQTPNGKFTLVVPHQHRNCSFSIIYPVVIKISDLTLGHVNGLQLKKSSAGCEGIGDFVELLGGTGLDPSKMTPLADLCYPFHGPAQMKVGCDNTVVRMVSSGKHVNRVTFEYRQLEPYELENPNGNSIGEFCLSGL

[4] = biological target: T1, Corticotropin-releasing factor receptor 2/Corticotropin-releasing factor-binding protein; test: Dose Response confirmation of uHTS hits for small molecule antagonists of the CRF-binding protein and CRF-R2 receptor complex.; assay type: functional; details: read-out: IC50_Mean
[5] = HEK293T cytotoxicity, dose response, cytotoxicity control for miR-122 modulator project, cell-based, inhibitor set, cherry-pick, set 2 (AID 720697); assay type: functional
[6] = HEK293T cytotoxicity, dose response, cytotoxicity control for miR-122 modulator project, cell-based, activator set, cherry-pick (AID 720690); assay type: functional;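 further: HEK293T human cells scored for general mammalian cytotoxicity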
INS1 = test: beta cell apoptosis inhibitors, cytokine rescue, dose response, luminescence, retest (AID 449756); assay type: functional, cell-based; details: Rattus norvegicus;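 further: cell death triggered by IL-1 beta plus TNF-alpha plus IFN-gamma mixture; protective hits raise ATP signal compared with cytokine alone wells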
[7] = biological target: T2, Microphthalmia-associated transcription factor (Homo sapiens, UniProt O75030); test: TRPM1 promoter luciferase signal decrease, dose response, MITF inhibitor project, cell-based, SK-MEL-5, cherry-picked, set 3 (AID 493073); assay type: functional
T2 sequence (O75030 whole entry): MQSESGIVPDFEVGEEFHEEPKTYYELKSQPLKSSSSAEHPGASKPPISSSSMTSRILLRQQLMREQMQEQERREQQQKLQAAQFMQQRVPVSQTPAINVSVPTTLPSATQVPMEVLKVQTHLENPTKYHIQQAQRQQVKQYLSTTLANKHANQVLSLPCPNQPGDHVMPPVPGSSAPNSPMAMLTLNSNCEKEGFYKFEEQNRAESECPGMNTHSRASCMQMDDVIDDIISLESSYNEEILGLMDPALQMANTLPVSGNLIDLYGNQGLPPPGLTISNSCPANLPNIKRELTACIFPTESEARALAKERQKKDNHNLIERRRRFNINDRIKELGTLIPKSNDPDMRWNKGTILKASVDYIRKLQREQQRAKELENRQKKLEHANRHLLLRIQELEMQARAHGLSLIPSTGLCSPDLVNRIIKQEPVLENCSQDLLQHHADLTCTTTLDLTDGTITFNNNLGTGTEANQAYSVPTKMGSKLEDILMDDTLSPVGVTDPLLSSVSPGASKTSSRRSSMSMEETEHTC

[8] = miR-122 activators in hepatoma reporter cells, dose response, cell-based, Huh7 psiCHECK-miR122, Renilla luciferase, cherry-picked (AID 651956); assay type: functional;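 further: huh7 hepatoma cells stably carrying a psiCHECK-2 miR-122 sensor plasmid; renilla luciferase signal reporting endogenous miR-122 activity after 48 h compound exposure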
[9] = A375 melanoma cell cytotoxicity, dose response, counter-screen for MITF inhibitor project, CellTiter-Glo luminescence, dry powder, set 2 (AID 624489); assay type: functional, cell-based; details: A-375;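 further: actives are compounds lowering A375 viability meaning general cytotoxicity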
[10] = A375 melanoma cell viability loss, dose response, counter-screen for MITF inhibitor project, CellTiter-Glo luminescence, dry powder, set 4 (AID 624364); assay type: functional, cell-based; details: A-375;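 further: A375 melanoma cells are MITF independent so this is a counter screen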
[11] = HepG2 hepatoma cell cytotoxicity, dose response, cytotoxicity control, CellTiter-Glo luminescence, dry powder, set 3 (AID 720594); assay type: functional, cell-based
[12] = AlphaScreen signal interference by compounds, dose response, artefact control for ARNT/TACC3 disruptor project, biochemical, dual-tagged ARNT, dry powder (AID 720564)
[13] = biological target: Potassium channel subfamily K member 3 (Homo sapiens, UniProt O14649); test: TASK1 (KCNK3) potassium channel inhibitors, SAR follow-up, CHO cells, FluxOR thallium flux (AID 652212); assay type: functional
[14] = biological target: Protein disulfide-isomerase A6 (Homo sapiens, UniProt Q15084); test: Secondary Assay for Selectivity of PDI Inhibitors (against ERp5) Measured in Biochemical System Using Plate Reader - 2137-04_Inhibitor_Dose_DryPowder_Activity_Set3.
[15] = HeLa cell cytotoxicity, dose response, cytotoxicity control, ATP luminescence, dry powder (AID 652117); assay type: functional, cell-based
[16] = biological target: Protein disulfide-isomerase (Homo sapiens, UniProt P07237); test: PDI inhibitors, insulin turbidity readout, confirmation, biochemical, dry powder samples, set 2 (AID 652146)
[17] = inhibitors of intracellular T. cruzi replication, confirmation, NIH3T3 host cells, beta-gal luminescence (AID 2044); assay type: functional, cell-based;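 further: intracellular parasites grown in NIH/3T3 mouse fibroblasts as host cells; luminescent beta-galactosidase reporter signal from transgenic T. cruzi replicating inside host cells; inhibitors lower the luminescence signal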
[18] = cytotoxicity toward NIH3T3 fibroblasts, dose response, counter-screen, cell-based, ATP luminescence, mouse fibroblasts (AID 2010); assay type: functional;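 further: cells exposed to compound for about 90 hours before reading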
[19] = biological target: T3, DNA repair protein RAD52 homolog (Homo sapiens, UniProt P43351); assay type: functional, biochemical
T3 sequence (P43351 whole entry): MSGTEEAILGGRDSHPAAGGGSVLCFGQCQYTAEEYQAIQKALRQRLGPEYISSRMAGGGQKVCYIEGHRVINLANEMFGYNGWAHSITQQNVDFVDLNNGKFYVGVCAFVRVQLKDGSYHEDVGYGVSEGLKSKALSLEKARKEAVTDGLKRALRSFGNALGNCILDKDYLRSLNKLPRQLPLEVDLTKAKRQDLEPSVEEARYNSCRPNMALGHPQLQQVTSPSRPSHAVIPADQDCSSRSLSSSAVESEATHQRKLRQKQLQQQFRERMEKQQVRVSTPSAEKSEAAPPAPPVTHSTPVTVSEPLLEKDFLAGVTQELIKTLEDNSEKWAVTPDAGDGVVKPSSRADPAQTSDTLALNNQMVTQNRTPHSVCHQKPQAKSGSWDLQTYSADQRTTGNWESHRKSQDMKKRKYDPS

cells [20] = assay type: functional, cell-based
cells [21] = assay type: functional, cell-based; remark: listed apart in the source
cells [22] = test: cells
cells [23] = details: HEK293
[24] = HepG2 cell cytotoxicity, dose response, cytotoxicity control, ATP luminescence, cherry-pick, set 6 (AID 1053125); assay type: functional, cell-based
Transthyretin = Transthyretin (Homo sapiens, UniProt P02766); test: Luminescence-based cell-based high throughput dose response assay to identify activators of Transthyretin (TTR) transcription.; assay type: functional
cells [25] = details: A549
A-375 = test: MITF: Counter assay: A375 proliferation Measured in Cell-Based System Using Plate Reader - 2084-03_Inhibitor_Dose_DryPowder_Activity. [Related pubchem assays (depositor defined):AID488944]; assay type: functional; details: Homo sapiens

Chain of Kallikrein-7 (P49862 whole entry): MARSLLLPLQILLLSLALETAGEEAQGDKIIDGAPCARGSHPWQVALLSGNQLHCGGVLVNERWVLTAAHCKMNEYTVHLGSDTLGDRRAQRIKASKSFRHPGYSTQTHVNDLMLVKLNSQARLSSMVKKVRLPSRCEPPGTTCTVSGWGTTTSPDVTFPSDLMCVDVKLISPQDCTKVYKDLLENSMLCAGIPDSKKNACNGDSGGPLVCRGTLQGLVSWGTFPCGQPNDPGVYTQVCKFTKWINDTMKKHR
Chain of Potassium channel subfamily K member 3 (O14649 whole entry): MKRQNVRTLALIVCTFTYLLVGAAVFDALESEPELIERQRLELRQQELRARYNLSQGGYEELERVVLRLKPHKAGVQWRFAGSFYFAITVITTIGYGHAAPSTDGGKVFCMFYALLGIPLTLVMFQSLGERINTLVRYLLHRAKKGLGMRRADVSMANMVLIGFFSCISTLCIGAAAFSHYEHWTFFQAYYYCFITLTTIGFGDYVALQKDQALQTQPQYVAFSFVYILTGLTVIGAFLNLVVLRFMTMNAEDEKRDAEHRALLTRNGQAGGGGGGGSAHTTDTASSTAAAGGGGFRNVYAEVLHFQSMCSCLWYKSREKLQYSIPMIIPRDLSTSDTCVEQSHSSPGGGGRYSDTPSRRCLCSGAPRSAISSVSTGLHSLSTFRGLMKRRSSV
Chain of Protein disulfide-isomerase A6 (Q15084 whole entry): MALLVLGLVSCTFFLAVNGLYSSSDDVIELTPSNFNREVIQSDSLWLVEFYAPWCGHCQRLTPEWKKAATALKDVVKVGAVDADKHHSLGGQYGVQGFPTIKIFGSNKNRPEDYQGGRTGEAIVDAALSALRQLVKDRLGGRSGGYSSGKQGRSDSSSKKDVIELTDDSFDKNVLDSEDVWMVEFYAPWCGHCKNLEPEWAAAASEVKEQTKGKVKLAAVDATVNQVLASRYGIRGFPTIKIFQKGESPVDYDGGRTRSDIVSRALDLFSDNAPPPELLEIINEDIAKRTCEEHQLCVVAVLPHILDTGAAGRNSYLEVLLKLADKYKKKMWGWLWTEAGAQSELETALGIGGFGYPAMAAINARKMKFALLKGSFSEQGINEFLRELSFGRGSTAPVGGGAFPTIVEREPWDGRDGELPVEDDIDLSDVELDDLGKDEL
Chain of 1-phosphatidylinositol 4,5-bisphosphate phosphodiesterase gamma-1 (P19174 whole entry): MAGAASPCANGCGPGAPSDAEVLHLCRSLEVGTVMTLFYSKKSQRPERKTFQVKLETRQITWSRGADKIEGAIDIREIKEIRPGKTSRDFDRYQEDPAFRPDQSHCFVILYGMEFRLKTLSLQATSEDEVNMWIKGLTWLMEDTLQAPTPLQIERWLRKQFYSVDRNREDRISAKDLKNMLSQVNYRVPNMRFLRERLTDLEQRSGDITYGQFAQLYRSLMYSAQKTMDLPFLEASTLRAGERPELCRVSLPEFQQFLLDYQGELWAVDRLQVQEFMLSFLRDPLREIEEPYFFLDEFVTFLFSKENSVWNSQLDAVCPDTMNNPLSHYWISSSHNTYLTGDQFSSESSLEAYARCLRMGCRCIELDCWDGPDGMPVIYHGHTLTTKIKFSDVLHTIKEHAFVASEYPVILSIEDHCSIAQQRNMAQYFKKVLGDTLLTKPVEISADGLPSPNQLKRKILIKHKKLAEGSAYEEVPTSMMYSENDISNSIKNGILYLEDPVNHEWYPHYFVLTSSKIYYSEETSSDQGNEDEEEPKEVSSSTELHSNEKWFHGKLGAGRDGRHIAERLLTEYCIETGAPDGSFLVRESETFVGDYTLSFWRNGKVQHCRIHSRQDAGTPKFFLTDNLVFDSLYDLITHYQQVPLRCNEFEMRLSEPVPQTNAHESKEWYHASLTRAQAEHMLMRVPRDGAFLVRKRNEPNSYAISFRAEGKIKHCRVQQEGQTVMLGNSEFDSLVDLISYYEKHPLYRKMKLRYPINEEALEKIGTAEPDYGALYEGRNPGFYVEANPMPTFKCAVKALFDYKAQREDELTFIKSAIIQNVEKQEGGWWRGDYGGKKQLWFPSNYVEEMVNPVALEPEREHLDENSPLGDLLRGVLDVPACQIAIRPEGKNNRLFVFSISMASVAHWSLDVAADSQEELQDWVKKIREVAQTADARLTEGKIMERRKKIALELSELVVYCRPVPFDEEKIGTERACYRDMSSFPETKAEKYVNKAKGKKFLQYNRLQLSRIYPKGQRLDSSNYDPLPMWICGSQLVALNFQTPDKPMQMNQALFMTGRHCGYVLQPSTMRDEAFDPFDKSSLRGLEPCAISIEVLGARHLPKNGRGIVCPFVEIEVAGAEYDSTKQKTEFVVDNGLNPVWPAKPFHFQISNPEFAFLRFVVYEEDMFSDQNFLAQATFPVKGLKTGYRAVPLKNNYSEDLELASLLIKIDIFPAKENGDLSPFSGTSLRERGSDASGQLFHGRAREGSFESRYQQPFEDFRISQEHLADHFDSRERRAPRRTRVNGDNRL
Chain of 1-phosphatidylinositol 4,5-bisphosphate phosphodiesterase beta-3 (Q01970 whole entry): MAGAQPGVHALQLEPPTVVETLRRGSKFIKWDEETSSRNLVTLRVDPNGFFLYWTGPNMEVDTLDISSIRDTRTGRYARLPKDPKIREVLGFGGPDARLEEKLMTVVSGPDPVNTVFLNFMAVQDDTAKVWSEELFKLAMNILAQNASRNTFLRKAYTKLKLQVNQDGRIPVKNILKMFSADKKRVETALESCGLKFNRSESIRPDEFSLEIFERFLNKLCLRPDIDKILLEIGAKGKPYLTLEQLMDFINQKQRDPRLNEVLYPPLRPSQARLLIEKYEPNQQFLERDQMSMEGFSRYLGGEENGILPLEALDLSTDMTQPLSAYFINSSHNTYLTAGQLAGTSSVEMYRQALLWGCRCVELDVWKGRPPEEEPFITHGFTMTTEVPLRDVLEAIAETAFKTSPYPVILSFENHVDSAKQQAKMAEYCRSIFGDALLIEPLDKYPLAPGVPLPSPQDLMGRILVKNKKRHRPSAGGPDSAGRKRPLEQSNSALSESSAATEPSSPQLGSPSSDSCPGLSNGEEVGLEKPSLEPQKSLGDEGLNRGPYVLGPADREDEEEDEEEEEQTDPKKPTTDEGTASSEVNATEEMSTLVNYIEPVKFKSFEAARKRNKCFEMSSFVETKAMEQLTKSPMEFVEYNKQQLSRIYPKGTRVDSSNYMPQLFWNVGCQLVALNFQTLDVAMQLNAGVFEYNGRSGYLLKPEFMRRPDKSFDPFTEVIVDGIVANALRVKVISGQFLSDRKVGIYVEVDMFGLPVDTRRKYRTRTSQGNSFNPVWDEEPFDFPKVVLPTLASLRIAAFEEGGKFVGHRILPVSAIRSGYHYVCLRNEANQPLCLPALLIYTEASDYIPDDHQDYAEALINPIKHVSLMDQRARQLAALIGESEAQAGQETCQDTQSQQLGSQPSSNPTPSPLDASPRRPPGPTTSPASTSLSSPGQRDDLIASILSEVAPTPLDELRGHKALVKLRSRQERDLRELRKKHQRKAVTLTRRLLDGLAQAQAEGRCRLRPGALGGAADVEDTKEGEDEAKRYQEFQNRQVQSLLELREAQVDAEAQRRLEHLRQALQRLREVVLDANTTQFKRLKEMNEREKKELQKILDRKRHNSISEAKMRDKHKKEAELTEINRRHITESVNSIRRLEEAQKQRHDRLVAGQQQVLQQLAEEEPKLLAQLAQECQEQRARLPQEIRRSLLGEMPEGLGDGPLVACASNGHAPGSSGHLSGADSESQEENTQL
Chain of Protein disulfide-isomerase (P07237 whole entry): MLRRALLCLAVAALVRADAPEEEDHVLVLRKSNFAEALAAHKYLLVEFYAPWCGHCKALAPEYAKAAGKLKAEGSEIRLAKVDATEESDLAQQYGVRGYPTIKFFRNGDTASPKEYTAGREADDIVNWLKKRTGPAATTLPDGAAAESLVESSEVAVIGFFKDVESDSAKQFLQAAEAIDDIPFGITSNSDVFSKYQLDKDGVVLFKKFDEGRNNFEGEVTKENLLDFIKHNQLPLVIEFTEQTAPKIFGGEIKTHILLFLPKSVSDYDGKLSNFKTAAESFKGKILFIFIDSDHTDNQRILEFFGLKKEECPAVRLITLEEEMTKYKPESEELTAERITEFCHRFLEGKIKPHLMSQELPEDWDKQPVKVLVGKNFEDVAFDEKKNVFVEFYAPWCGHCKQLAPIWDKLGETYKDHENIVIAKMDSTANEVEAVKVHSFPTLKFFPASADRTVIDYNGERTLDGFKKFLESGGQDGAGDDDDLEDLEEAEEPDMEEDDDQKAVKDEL

For `O=C(CSCc1ccccc1)Nc1cccc(F)c1`, the IC50 [1] was > 122 µM (inactive) and the IC50 [2] was > 122 µM (inactive).

With `CCCCOC(=O)Oc1ccc2c(=O)c(Oc3cccc(C)c3)coc2c1` the EC50 (Kallikrein-7) was 6.86 µM (active), the EC50 [3] was > 53 µM (inactive) and the IC50 [4] was > 47.1 µM (inactive).

For `Oc1c(Cl)cc(Cl)cc1/C=N/Nc1ncc(Br)cn1`, the AC50 [5] was 5.81 µM (active), the AC50 [6] was 22.9 µM (active) and the AC50 (INS1) was 0.388 µM (active). For the same molecule, the AC50 [7] was 7.84 µM (active) and the AC50 [8] was 54.3 µM (active).

For `O=C1C(NS(=O)(=O)c2ccc(Br)cc2)=C(N2CCSCC2)C(=O)c2ccccc21`, the AC50 [9] was > 70 µM (inactive) and the AC50 [10] was > 70 µM (inactive).

In the case of `CC1CCN(S(=O)(=O)c2ccc(C(=O)Nc3nnc(-c4cccs4)o3)cc2)CC1`, the AC50 [11] was > 52 µM (inactive) and the AC50 [12] was 116 µM (active).

For `Cc1cccc(S(=O)(=O)Nc2cccc(NC(=O)c3ccccc3)c2)c1`, the IC50 [13] was 1.45 µM (active).

In the case of `CC(C)OC(=O)C1(CCOc2ccccc2)CCN(Cc2ccc(O)c(Cl)c2)CC1`, the AC50 [14] was 30 µM (inactive), the AC50 [15] was 47.9 µM (active) and the AC50 [16] was 1 µM (active).

For `OCCNc1c2ccccc2nc2ccccc12`, the EC50 [17] was 0.993 µM (active), the EC50 [18] was 7.92 µM (active) and the AC50 [19] was 9.09 µM (active). For the same molecule, the EC50 (cells [20]) was 23 µM (active), the EC50 (cells [21]) was > 350 µM (not active) and the AC50 (cells [22]) was 11.7 µM (active). The AC50 (cells [23]) was 14.2 µM (active), the AC50 [24] was 17 µM (active) and the EC50 (Transthyretin) was > 167 µM (inactive). For the same molecule, the AC50 [7] was 7.28 µM (active), the AC50 (cells [25]) was 11.6 µM (active) and the AC50 (A-375) was 28.6 µM (active).
